Several values for one entry are separate records, joined by “and”; a condition that tells them apart may be missing. Equal values may be shown once. Inconclusive results and toxic doses are left out. Rule for the calls: active = survival T/C of 150% or more; inactive = T/C below 125% in these data.
Test system: BDF1 mice, P388 leukemia ip, median survival T/C
Test: NCI In Vivo Anticancer Drug Screen. Data for tumor model P388 Leukemia (intraperitoneal) in B6D2F1 (BDF1) mice
Details: endpoint: median survival time, higher = longer survival
Outline: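 Reported as T/C, where T is the survival measurement in dosed animals and C the same measurement in vehicle controls.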

[1] = dose: 100.0 mg/kg/injection, schedule: Q04DX003 (ip), vehicle: saline with Tween-80
[2] = dose: 200.0 mg/kg/injection, schedule: Q04DX003 (ip), vehicle: saline with Tween-80
[3] = dose: 400.0 mg/kg/injection, schedule: Q04DX003 (ip), vehicle: saline with Tween-80
[4] = dose: 25.0 mg/kg/injection, schedule: Q01DX009 (ip), vehicle: saline
[5] = dose: 50.0 mg/kg/injection, schedule: Q01DX009 (ip), vehicle: saline
[6] = dose: 100.0 mg/kg/injection, schedule: Q01DX009 (ip), vehicle: saline
[7] = dose: 200.0 mg/kg/injection, schedule: Q01DX009 (ip), vehicle: saline
[8] = dose: 100.0 mg/kg/injection, schedule: Q01DX009 (ip), vehicle: saline with Tween-80
[9] = dose: 200.0 mg/kg/injection, schedule: Q01DX009 (ip), vehicle: saline with Tween-80
[10] = dose: 400.0 mg/kg/injection, schedule: Q01DX009 (ip), vehicle: saline with Tween-80
[11] = dose: 12.5 mg/kg/injection, schedule: Q01DX009 (ip), vehicle: saline with Tween-80
[12] = dose: 25.0 mg/kg/injection, schedule: Q01DX009 (ip), vehicle: saline with Tween-80

Measured: T/C

Cc1c(C)c(CO)c(C)c(C)c1CO
inactive: dose: 8.0 mg/kg/injection, schedule: Q01DX009 (ip), vehicle: Klucel (hydroxypropylcellulose) (HPC) 96 % of control | dose: 12.0 mg/kg/injection, schedule: Q01DX009 (ip), vehicle: Klucel (hydroxypropylcellulose) (HPC) 89 % of control | dose: 12.0 mg/kg/injection, schedule: Q04DX003 (ip), vehicle: Klucel (hydroxypropylcellulose) (HPC) 104 % of control | dose: 18.0 mg/kg/injection, schedule: Q01DX009 (ip), vehicle: Klucel (hydroxypropylcellulose) (HPC) 96 % of control | dose: 25.0 mg/kg/injection, schedule: Q04DX003 (ip), vehicle: Klucel (hydroxypropylcellulose) (HPC) 95 % of control | dose: 50.0 mg/kg/injection, schedule: Q04DX003 (ip), vehicle: Klucel (hydroxypropylcellulose) (HPC) 104 % of control

O=C(Cc1ccc(F)cc1)c1ccccc1
inactive: [1] 88 % of control | [2] 111 % of control | [3] 105 % of control

CC12CCC(CC1)C(C)(C)O2
inactive: [4] 106 % of control | [5] 117 % of control | [6] 106 % of control | [7] 107 % of control

CNC(=O)c1n[nH]c(C)c1[N+](=O)[O-]
inactive: dose: 25.0 mg/kg/injection, schedule: Q04DX003 (ip), vehicle: water 101 % of control | dose: 50.0 mg/kg/injection, schedule: Q04DX003 (ip), vehicle: water 106 % of control | dose: 100.0 mg/kg/injection, schedule: Q04DX003 (ip), vehicle: water 114 % of control | dose: 200.0 mg/kg/injection, schedule: Q04DX003 (ip), vehicle: water 97 % of control | dose: 400.0 mg/kg/injection, schedule: Q04DX003 (ip), vehicle: water 87 % of control

CS(=O)(=O)OC[C@H](OS(=O)(=O)O)[C@H](COS(C)(=O)=O)OS(=O)(=O)O
inactive: dose: 50.0 mg/kg/injection, schedule: Q04DX003 (ip), vehicle: saline with Tween-80 110 % of control | [1] 110 % of control | [2] 110 % of control

COc1ccc2c(C#N)cc3c4ccccc4ncc3c2c1
inactive: dose: 12.5 mg/kg/injection, schedule: Q01DX009 (ip), vehicle: distilled water + Tween-80 107 % of control | dose: 25.0 mg/kg/injection, schedule: Q01DX009 (ip), vehicle: distilled water + Tween-80 113 % of control | dose: 50.0 mg/kg/injection, schedule: Q01DX009 (ip), vehicle: distilled water + Tween-80 88 % of control | dose: 100.0 mg/kg/injection, schedule: Q01DX009 (ip), vehicle: distilled water + Tween-80 88 % of control

OCC(O)C(O)C(O)C(O)C(O)c1nc2ccccc2[nH]1 (stereo not drawn)
inactive: [8] 100 % of control | [9] 91 % of control | [10] 93 % of control

COc1ccc(/C=C/C(=O)c2ccc3cc(OC)c(OC)cc3c2)cc1OC
inactive: [4] 98 % of control | [5] 91 % of control | [6] 87 % of control | [7] 100 % of control | dose: 400.0 mg/kg/injection, schedule: Q01DX009 (ip), vehicle: saline 91 % of control

CCOC(=O)CC1=NN=C(N)SC1
inactive: [6] 122 % of control

COc1ccc(C(OC)C2CCCCC2N2CCCCC2)cc1 (stereo not drawn)
inactive: dose: 0.5 mg/kg/injection, schedule: Q01DX009 (ip), vehicle: Klucel (hydroxypropylcellulose) (HPC) 90 % of control | dose: 1.0 mg/kg/injection, schedule: Q01DX009 (ip), vehicle: Klucel (hydroxypropylcellulose) (HPC) 101 % of control | dose: 2.0 mg/kg/injection, schedule: Q01DX009 (ip), vehicle: Klucel (hydroxypropylcellulose) (HPC) 98 % of control

CC(/C=N/NC(N)=S)Cc1ccc(C(C)C)cc1 (stereo not drawn)
inactive: dose: 7.0 mg/kg/injection, schedule: Q01DX009 (ip), vehicle: saline with Tween-80 110 % of control | dose: 7.0 mg/kg/injection, schedule: Q04DX003 (ip), vehicle: saline with Tween-80 100 % of control | dose: 14.0 mg/kg/injection, schedule: Q01DX009 (ip), vehicle: saline with Tween-80 115 % of control | dose: 14.0 mg/kg/injection, schedule: Q04DX003 (ip), vehicle: saline with Tween-80 104 % of control | dose: 28.0 mg/kg/injection, schedule: Q04DX003 (ip), vehicle: saline with Tween-80 95 % of control

O=C1N/C(=N\O)S/C1=C/c1ccc2c(c1)OCO2
inactive: dose: 100.0 mg/kg/injection, schedule: Q01DX001 (ip), vehicle: saline with Tween-80 89 % of control | dose: 200.0 mg/kg/injection, schedule: Q01DX001 (ip), vehicle: saline with Tween-80 95 % of control | dose: 400.0 mg/kg/injection, schedule: Q01DX001 (ip), vehicle: saline with Tween-80 105 % of control

Cc1c(O)ccc2c1CCCC2
inactive: dose: 50.0 mg/kg/injection, schedule: Q01DX001 (ip), vehicle: saline sonified 90 % of control | dose: 100.0 mg/kg/injection, schedule: Q01DX001 (ip), vehicle: saline sonified 104 % of control | dose: 200.0 mg/kg/injection, schedule: Q01DX001 (ip), vehicle: saline sonified 100 % of control

Clc1ccc(-c2nc3ncccn3n2)cc1
inactive: [11] 106 % of control | [12] 95 % of control | dose: 50.0 mg/kg/injection, schedule: Q01DX009 (ip), vehicle: saline with Tween-80 91 % of control and 95 % of control | [9] 101 % of control

O=C(/C=C/c1ccccc1)NC(CO)Cc1ccccc1 (stereo not drawn)
inactive: dose: 6.25 mg/kg/injection, schedule: Q01DX009 (ip), vehicle: saline with Tween-80 90 % of control | [11] 92 % of control | [12] 101 % of control | [8] 100 % of control | [9] 100 % of control

COC(=O)CCN(c1ccccc1)S(=O)(=O)c1ccc(C)cc1
inactive: dose: 100.0 mg/kg/injection, schedule: Q01DX009 (ip), vehicle: Klucel (hydroxypropylcellulose) (HPC) 104 % of control | dose: 100.0 mg/kg/injection, schedule: Q04DX003 (ip), vehicle: Klucel (hydroxypropylcellulose) (HPC) 100 % of control | dose: 200.0 mg/kg/injection, schedule: Q01DX009 (ip), vehicle: Klucel (hydroxypropylcellulose) (HPC) 104 % of control | dose: 200.0 mg/kg/injection, schedule: Q04DX003 (ip), vehicle: Klucel (hydroxypropylcellulose) (HPC) 100 % of control | dose: 400.0 mg/kg/injection, schedule: Q01DX009 (ip), vehicle: Klucel (hydroxypropylcellulose) (HPC) 95 % of control | dose: 400.0 mg/kg/injection, schedule: Q04DX003 (ip), vehicle: Klucel (hydroxypropylcellulose) (HPC) 100 % of control

O=[P+](O)C(O)c1ccccc1 (stereo not drawn)
inactive: dose: 100.0 mg/kg/injection, schedule: Q04DX003 (ip), vehicle: saline 100 % of control | dose: 200.0 mg/kg/injection, schedule: Q04DX003 (ip), vehicle: saline 108 % of control | dose: 400.0 mg/kg/injection, schedule: Q04DX003 (ip), vehicle: saline 91 % of control

CC(C)(C)C1CCC(C#N)(NNc2ccccc2)CC1 (stereo not drawn)
inactive: dose: 50.0 mg/kg/injection, schedule: Q01DX005 (ip), vehicle: saline with Tween-80 90 % of control | dose: 100.0 mg/kg/injection, schedule: Q01DX005 (ip), vehicle: saline with Tween-80 106 % of control | dose: 200.0 mg/kg/injection, schedule: Q01DX005 (ip), vehicle: saline with Tween-80 89 % of control

COC(=O)NC1CCCCC1I (stereo not drawn)
inactive: [8] 100 % of control | [1] 100 % of control | [9] 100 % of control | [2] 100 % of control | [10] 100 % of control | [3] 109 % of control

CCN1c2ccccc2CC(CCN(C)Cc2ccccc2)(C(N)=O)c2ccccc21 (stereo not drawn)
inactive: [8] 101 % of control

CN(C)c1ccc(C(N)=O)cn1
inactive: dose: 0.51 mg/kg/injection, schedule: Q01DX009 (ip), vehicle: saline 95 % of control | dose: 1.03 mg/kg/injection, schedule: Q01DX009 (ip), vehicle: saline 115 % of control | dose: 2.0 mg/kg/injection, schedule: Q01DX009 (ip), vehicle: saline 90 % of control | dose: 2.06 mg/kg/injection, schedule: Q01DX009 (ip), vehicle: saline 100 % of control | dose: 3.0 mg/kg/injection, schedule: Q04DX003 (ip), vehicle: saline 100 % of control | dose: 3.13 mg/kg/injection, schedule: Q01DX009 (ip), vehicle: saline 100 % of control | dose: 4.12 mg/kg/injection, schedule: Q01DX009 (ip), vehicle: saline 112 % of control | dose: 4.7 mg/kg/injection, schedule: Q01DX009 (ip), vehicle: saline 86 % of control | dose: 6.0 mg/kg/injection, schedule: Q04DX003 (ip), vehicle: saline 100 % of control | dose: 12.0 mg/kg/injection, schedule: Q04DX003 (ip), vehicle: saline 109 % of control | dose: 17.0 mg/kg/injection, schedule: Q04DX003 (ip), vehicle: saline 118 % of control | dose: 40.0 mg/kg/injection, schedule: Q04DX003 (ip), vehicle: saline 95 % of control

From PubChem BioAssay AID328 (DTP/NCI, 2004)
